From the METLIN SMRT retention time set (Domingo-Almenara et al. 2019)

Test: gradient 5% acetonitrile 3 min, to 50% in 2 min, to 85% in 15 min, held 3 min, 100 µL/min
Settings: column: Zorbax Extend-C18 2.1 x 50 mm; eluents: water / acetonitrile, 0.1% formic acid
Outline: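 Pure standards were analyzed in mixtures of ~100 molecules using HPLC coupled to a quadrupole time-of-flight mass spectrometer, in both positive and negative ionization mode. Separation used a Zorbax Extend-C18 column (2.1 × 50 mm, 1.8 μm) at 100 μL/min, with water and acetonitrile each containing 0.1% formic acid. Dead and dwell volumes were 40 μL and 900 μL, and data were collected over 3 months. Retention time was read from computationally picked adduct peaks, each inspected manually.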

Row | SMILES | RP-LC retention time [s]
1 | CCCN1CCN(CCNC(=O)C2CCCN(c3ncc(-c4cccc(F)c4)cn3)C2)CC1 (centres undefined) | 641
2 | CSc1nc(N2CCCC2)c2cnn(CCNC(=O)c3cc(-c4ccccc4)n[nH]3)c2n1 | 761
3 | CCC(=O)N(C1CCOCC1)C1CCN(S(=O)(=O)c2cc(C)ccc2C)CC1 | 908
4 | COc1ccc(/C=C/c2nc(-c3ccc4oc(C)nc4c3)no2)cc1OC | 995
5 | O=C(NCc1cccs1)C1CCN(C(=O)c2ncn3c2COC(c2ccc(F)cc2)C3)CC1 (centres undefined) | 736
6 | Cc1cccc(CNC(=O)C2CCN(C(=O)C3Sc4ccccc4NC3=O)CC2)c1 (centres undefined) | 762
7 | CN(C)c1ccc(CNC(=O)Cc2cn(C)c3ncccc23)cc1 | 704
8 | CCN1CCN(c2ccc3nnc(CCc4nc(-c5ccc(F)cc5)no4)n3n2)CC1 | 602
9 | Cc1ccc(OCC(=O)Nc2nnc(C3CC(=O)N(c4ccc(F)cc4)C3)o2)cc1 (centres undefined) | 792
10 | O=S(=O)(c1cccc(-c2nnc(SC/C=C/c3ccccc3)o2)c1)N1CCOCC1 | 980
11 | O=C(CSc1ccc(NC(=O)c2cccs2)nn1)Nc1nc2ccccc2s1 | 840
12 | CC(=O)N1CCc2cc(N3CC(C(=O)Nc4ccccc4F)CC3=O)ccc21 (centres undefined) | 690
13 | CNC(=O)C1CCN(C(=O)Nc2ccc(NC(=O)Nc3ccccc3)cc2)CC1 | 636
14 | COCCCNC(=O)C1CCN(c2nc3cccnc3s2)CC1 | 623
15 | CCCNc1c(C(=O)OC)c(=O)[nH]c2c(Cl)cccc12 | 724
16 | O=C(Cc1cccs1)NC1CC(=O)N(C2CC2)C1 (centres undefined) | 584
17 | CCn1ncn2cc(S(=O)(=O)Nc3cccc(C)c3)cc2c1=O | 849
18 | O=C(NC1CCCC1)C1c2cccn2CC(=O)N1Cc1ccc(Cl)cc1 (centres undefined) | 905
19 | CC1CCCCN1CCCNC(=O)CCCn1c(=O)c2cccn2c2ccc(Br)cc21 (centres undefined) | 674
20 | COc1cc(OC)c(NC(=O)C2=C(C)C(=O)OC23CCN(C(C)C)CC3)cc1Cl | 654
21 | Cc1cc(=O)c2cc(C(=O)Nc3nc4ccccc4s3)ccc2[nH]1 | 702
22 | COc1ccc(-n2nc(-c3nc(-c4ccccn4)no3)c3ccccc3c2=O)cc1 | 946
23 | Cc1nn(-c2ccc(N3CCCC3)nn2)c(C)c1CCC(=O)N1CCN(c2ccccn2)CC1 | 546

Row | SMILES | RP-LC retention time [s]
24 | COc1ccc(F)cc1S(=O)(=O)NCC1(c2cccs2)CC1 | 933
25 | CNC(=O)c1oc2ccccc2c1NC(=O)C1CCC1 | 803
26 | Cc1ccc(NC(=O)N2CCC(n3cnc4ccc(C)cc4c3=O)CC2)c(C)c1 | 795
27 | CCN1C(=O)CCc2cc(NC(=O)Cc3ccc(OC)c(Cl)c3)ccc21 | 798
28 | COc1cccc(Cn2nc3n(C)c(=O)c4ccc(C(=O)NC5CCCC5)cc4n3c2=O)c1 | 851
29 | CS(=O)(=O)NCCc1ccc(CC2CCN(S(=O)(=O)c3cccnc3)CC2)cc1 | 814
30 | O=C(Nc1ccc2sccc2c1)c1ccc(Cl)s1 | 996
31 | O=c1c2nc(-c3ccccc3)cn2ccn1-c1ccc(Cl)cc1 | 841
32 | CCCN(C)CC1(O)CCC2(CCN(C(=O)c3ccsc3)CC2)CC1 | 590
33 | CCN1c2ccccc2C(=O)NC12CCN(C(=O)NCc1ccccc1)CC2 | 881
34 | COc1ccc(CC(=O)Nc2nc(S(=O)(=O)Cc3ccccc3)ns2)cc1OC | 775
35 | CN1CCN(CCCNC(=O)Cn2c(=O)c3cccn3c3ccc(F)cc32)CC1 | 589
36 | O=C(c1csc(N2CCN(c3ccc(F)cc3)CC2)n1)N1CCOCC1 | 954
37 | O=C(O)/C(=C/c1ccccc1)c1ccccc1 | 923
38 | Cc1ccc(C(=O)N2CCC(COc3ccc(C(=O)NC4CC4)cc3)CC2)cc1C | 887
39 | COc1ccc(NC(=O)c2ccccc2NC(=O)C2CCN(C(=O)C(C)(C)C)CC2)cc1 | 868
40 | CN(c1ccc(F)cc1)S(=O)(=O)N1CCCC(C(=O)N2CCN(c3ncccn3)CC2)C1 (centres undefined) | 864
41 | COc1ccc(-c2cc3c(=O)n(Cc4noc(CN5CCCC5)n4)ccn3n2)cc1 | 646
42 | O=C(NCc1ccco1)c1cccc(Nc2c(-c3ccc(Cl)cc3)nc3cnccn23)c1 | 826
43 | CCN(CC)CCNC(=O)c1sc2ncn(Cc3ccccc3F)c(=O)c2c1C | 638
44 | Cc1ccc(Cn2c(=O)c(N3CCN(C(=O)NCc4ccco4)CC3)nc3ccccc32)cc1 | 1010
45 | O=C(Cn1cc(-c2ccccc2)c2ncnc(N3CCCCC3)c21)Nc1ccccc1 | 798
46 | O=S(=O)(c1ccccc1)N1CC(n2cnnc2-c2ccccc2)C1 | 641

Row | SMILES | RP-LC retention time [s]
47 | COc1ccc(-n2c(=O)c(C(=O)Nc3ccc(F)c(F)c3)c(O)c3cccnc32)cc1 | 983
48 | CC(C)Cc1cc(-c2nn3c(COc4ccc(F)cc4)nnc3s2)n[nH]1 | 936
49 | O=C(NCc1ccc(N2CCOCC2)cc1)c1cn2ccccc2n1 | 591
50 | Cc1nncn1C1CN(C(=O)Nc2ccc(Cl)cc2C(F)(F)F)C1 | 662
51 | CCC1CN2C=NC(N3CCN(C(=O)c4ccc(C)s4)CC3)=CC2=N1 (centres undefined) | 632
52 | COc1ccc(NC(=O)C2CCN(C(=O)C3Sc4ccccc4NC3=O)CC2)cc1OC (centres undefined) | 692
53 | CO[C@H]1CN(C(C)C)[C@H]1C1CCN(C(=O)C2CCC2)CC1 | 574
54 | CCCn1c(=O)c(-c2ccc(C(=O)NCCOC)cc2)nc2cccnc21 | 796
55 | CCc1noc(NC(C)=O)c1-c1ccc(C)c(S(=O)(=O)Nc2ccc(C(=O)OC)cc2)c1 | 736
56 | CCCn1cc(C(=O)N2CCOCC2)c2cccnc21 | 640
57 | CC(NC(=O)c1cn(-c2cc(-c3nc(C4CC4)no3)ccn2)cn1)c1ccccc1 (centres undefined) | 981
58 | CC(C)CCNC(=O)c1ccc2c(c1)N(C)C(=O)C1CCCCN21 (centres undefined) | 885
59 | Cc1cc(C)c(S(=O)(=O)Nc2ccc(Cn3cncn3)cc2)c(C)c1 | 798
60 | CCOC(=O)c1ccc(NC(=O)NCC2CCN(Cc3ccc(C)cc3)C2)cc1 (centres undefined) | 688
61 | Cc1cc(N2CCN(C(=O)c3ccc(Br)cc3)CC2)nc2nnc(C)n12 | 563
62 | Cc1sc(NC(=O)C(C)C)nc1-c1ccc2c(c1)N(C)C(=O)CO2 | 831
63 | CC(=O)N1CCc2nn(CC(=O)N3CCc4ccccc43)c(=O)cc2C1 | 639
64 | N#CC(c1ccccc1)C(C/C(=N\O)c1ccccc1)c1ccccc1 (centres undefined) | 1090
65 | CS(=O)(=O)N1CCC(C(=O)NCc2csc(-c3cccs3)n2)CC1 | 694
66 | COc1ccc(-c2nnc(-c3cc(S(=O)(=O)N4CCC(C)CC4)ccc3Cl)o2)cc1 | 1160
67 | O=C(c1cnc2ccccc2n1)N1CCN(Cc2ccsc2)CC1 | 556
68 | CCN(CC)C(=O)N1CCCC1Cc1noc(-c2cccnc2)n1 (centres undefined) | 712
69 | CCc1nc2cc(-c3noc(/C=C/c4ccco4)n3)ccc2o1 | 1090

Row | SMILES | RP-LC retention time [s]
70 | COc1ccc(S(=O)(=O)NCC2Cn3cccc3C(=O)N2C)cc1 (centres undefined) | 687
71 | COc1ccc2c(c1)c(CN1CCC(C(=O)NCCN(C)Cc3ccccc3)CC1)cn2C | 590
72 | O=c1ccc(-c2ccc3c(c2)OCO3)nn1CCc1nc(-c2ccc(F)cc2)no1 | 927
73 | CCc1ccc(OCc2nc(C)c(C(=O)Nc3nc(-c4ccc(F)cc4)cs3)s2)cc1 | 1320
74 | CC1CCCCN1CCCNC(=O)CCC(=O)N1CCc2c(c(C(=O)N3CCCC3)nn2C)C1 (centres undefined) | 586
75 | COC(=O)C(C)NC(=O)N1CCC2(CC1)Nc1cc(F)ccc1-n1cccc12 (centres undefined) | 865
76 | O=C(Cc1ccccc1Cl)NCC1CCN(C(=O)Oc2ccccc2)CC1 | 704
77 | O=C(CCSc1ccccc1)Nc1ccc2c(c1)CN(C(=O)C1CC1)CC2 | 816
78 | CC(C)(C)c1csc(-c2csc(S(=O)(=O)NCc3ccccc3)c2)n1 | 1230
79 | COc1ccccc1N1CCN(S(=O)(=O)c2cc(-c3cc(C(F)(F)F)on3)cs2)CC1 | 1200
80 | CN(c1ccc(F)cc1)S(=O)(=O)N1CCCC(C(=O)N2CCN(c3ccccn3)CC2)C1 (centres undefined) | 660
81 | O=C(Cn1cnc2ccccc21)NCCCn1ccc2ccccc21 | 605
82 | COCCCNC(=O)NCc1ccc2c(c1)N(C(=O)c1ccccc1)CC2 | 742
83 | Cc1ncoc1C(=O)NCC1Cn2cccc2C(=O)N1CC(C)C (centres undefined) | 647
84 | O=C(COc1ccc(F)cc1)N1C[C@@H]2C[C@H]1C[C@@H]2NS(=O)(=O)c1ccccc1 | 793
85 | O=C(Nc1cccc(F)c1)C1CCCN(c2ccc3cc(S(=O)(=O)N4CCCCC4)ccc3n2)C1 (centres undefined) | 908
86 | CCCn1cnc2ccc(-c3noc(-c4cccc(F)c4)n3)cc21 | 873
87 | CCOc1ccc(C(=O)Nc2ccc(-c3cn4ccc(C)nc4n3)cc2)cc1OCC | 684
88 | COc1cc2c(Oc3ccc4[nH]c(C)cc4c3F)ncnc2cc1OCCCN1CCCC1 | 709
89 | CCN1C(=O)COc2ccc(-c3noc(C4CCN(C(C)=O)CC4)n3)cc21 | 744
